We go through nine compounds from patent US4668664A (L'Oreal, priority 1985, dated 1987).

The test system of test [1] is P 37 E⊕ (sensitive). Put plainly: Minimal Inhibiting Concentration (MIC) by the dilution method, sensitive strain P 37 E⊕. It is filed as cell-based, propionibacterium acnes. The following applies: Cutibacterium acnes. From the text: (§1) This method is described and employed by G. A. Denys et al, Antimicrobial Agents and Chemotherapy (1983), 23, 335-337 and J. J. Leyden et al, J. Am. Acad. Dermatol. (1983) 8 (1) 41-5, and utilizes as the strain of propionibacterium acnes, the P 37 strain furnished by Cunliffe and Holland.
(§2) After display of a standardized inoculum (DO=1.8 to 450 nm) on gelose medium (RCM+furazolidone), in a Petri dish, a disc of 9 mm in diameter is deposited in its center.
The two types of colonies are then retained by pulling away from the gelose medium (sterilized platinum loop):
(§3) (2) at 1 cm beyond the periphery of the inhibition zone the strains denominated P 37 E⊕ are retained.

The test system of test [2] is P 37 E⊖ (resistant). The experiment in a line: Minimal Inhibiting Concentration (MIC) by the dilution method, resistant strain P 37 E⊖. The settings on record: for MIC: Cutibacterium acnes, read-out: Minimal Inhibiting Concentration (MIC), P 37 E⊖ (resistant), dilution method; for relative activity on strain P 37 E⊖: in words, vs reference fatty esters / erythromycin. It is filed as cell-based, propionibacterium acnes. The procedure:
as §1, §2
(§4) After 6 days at 36° C. in an anaerobic medium (GAS-PAK system, B.B.L.) a growth inhibition zone of the strain is clearly visible (total diameter=42 mm), the great majority of the colonies being situated at the periphery of the inhibition zone.
On the other hand, at its interior a few colonies clearly appear.
The two types of colonies are then retained by pulling away from the gelose medium (sterilized platinum loop): […]

The test system of test [3] is propionibacterium acnes P 37 strain. The experiment in a line: Minimal Inhibiting Concentration (MIC) by the dilution method, P 37 strain. It is filed as cell-based. The settings on record: Cutibacterium acnes, P37STRAIN.
Excerpt: as §1

Test [4] deals with P 37. The experiment in a line: IC 50 study (inhibiting concentration at 50%), P 37. It is filed as cell-based, propionibacterium acnes. The following applies: Cutibacterium acnes, 50% survivors at constant culture time, read-out: IC 50 (inhibiting concentration at 50%; column head printed MIC).
The test system of test [5] is P 37 E⊕. Put plainly: IC 50 study (inhibiting concentration at 50%), P 37 E⊕. The following applies: Cutibacterium acnes, read-out: IC 50 (inhibiting concentration at 50%; column head printed MIC). It is filed as cell-based, propionibacterium acnes.
Excerpt: as §3

For test [6], the system named is P 37 E⊖. The experiment in a line: IC 50 study (inhibiting concentration at 50%), P 37 E⊖. It is filed as cell-based, propionibacterium acnes. The settings on record: Cutibacterium acnes, read-out: IC 50 (inhibiting concentration at 50%; column head printed MIC).
For test [7], the system named is P 37 strain. Put plainly: Growth inhibition zone, disc on gelose medium. It is filed as cell-based, propionibacterium acnes. The following applies: Cutibacterium acnes, 144 h; read-out: growth inhibition zone, total diameter. How it is done: as §2, §4

Values after ≈ are worked out from the molar mass of the structure shown.

Take `CCCCC/C=C/C/C=C/CCCCCCCC(=O)O[C@H]1[C@H](C)O[C@@H](O[C@H]2[C@H](C)[C@@H](O[C@@H]3O[C@H](C)C[C@H](N(C)C)[C@H]3O)[C@](C)(O)C[C@@H](C)C(=O)[C@H](C)[C@@H](O)[C@](C)(O)[C@@H](CC)OC(=O)[C@@H]2C)C[C@@]1(C)OC` [O--linoelaidoyl-4", O-linoelaidoyl-4" erythromycin A]: the MIC in test [1] stood at 25 µg/mL (≈ 25.1 µM). Also, in test [2], the MIC amounted to 100 µg/mL (≈ 100 µM) and the “relative activity on strain P 37 E⊖” value is reported as “less active”.

For the compound `CC[C@H]1OC(=O)[C@H](C)[C@@H](O[C@H]2C[C@@](C)(OC)[C@@H](O)[C@H](C)O2)[C@H](C)[C@@H](O[C@@H]2O[C@H](C)C[C@H](N(C)C)[C@H]2O)[C@](C)(O)C[C@@H](C)C(=O)[C@H](C)[C@@H](O)[C@]1(C)O` [Erythromycin, erythromycin A], the MIC is 0.78 µg/mL (≈ 1.06 µM) in test [3], 0.78 µg/mL (≈ 1.06 µM) in test [1] and > 50 µg/mL in test [2]. Besides, the “Minimal Inhibiting Concentration (MIC)” value in test [2] (P 37 E⊖ (resistant), dilution method) was 50 µg/mL. For the same compound, the IC50 was 50 µg/mL (≈ 68.1 µM) in test [4], 5 µg/mL (≈ 6.81 µM) in test [5] and ~100 µg/mL (≈ 136 µM) in test [6]. Moreover, the zone of inhibition at 50 µg/disc in test [7] came out at 42 mm.

Consider `CCCCC/C=C\C/C=C\CCCCCCCC(=O)O[C@H]1[C@H](O[C@@H]2[C@@H](C)[C@H](O[C@H]3C[C@@](C)(OC)[C@@H](O)[C@H](C)O3)[C@@H](C)C(=O)O[C@H](CC)[C@@](C)(O)[C@H](O)[C@@H](C)C(=O)[C@H](C)C[C@@]2(C)O)O[C@H](C)C[C@@H]1N(C)C` [O--linolenoyl-2', O-linoleoyl-2' erythromycin A], for which the MIC was found to be 4 µg/mL (≈ 4.01 µM) in test [1] and 16 µg/mL (≈ 16.1 µM) in test [2].

`CCCCC/C=C/C/C=C/CCCCCCCC(=O)O[C@H]1[C@H](O[C@@H]2[C@@H](C)[C@H](O[C@H]3C[C@@](C)(OC)[C@@H](O)[C@H](C)O3)[C@@H](C)C(=O)O[C@H](CC)[C@@](C)(O)[C@H](O)[C@@H](C)C(=O)[C@H](C)C[C@@]2(C)O)O[C@H](C)C[C@@H]1N(C)C` [O--linoelaidoyl-2', O-linoelaidoyl-2' erythromycin A] gave an MIC in test [1] of 25 µg/mL (≈ 25.1 µM). Also, in test [2], the MIC is 100 µg/mL (≈ 100 µM) and the “relative activity on strain P 37 E⊖” value is recorded as “less active”.

With `CC/C=C\C/C=C\C/C=C\CCCCCCCC(=O)O[C@H]1[C@H](C)O[C@@H](O[C@H]2[C@H](C)[C@@H](O[C@@H]3O[C@H](C)C[C@H](N(C)C)[C@H]3O)[C@](C)(O)C[C@@H](C)C(=O)[C@H](C)[C@@H](O)[C@](C)(O)[C@@H](CC)OC(=O)[C@@H]2C)C[C@@]1(C)OC` [O--α-linolenoyl-4", O-α-linolenoyl-4" erythromycin A], the results for the MIC in test [1] and in test [2] were 4.5 µg/mL (≈ 4.53 µM) and 37 µg/mL (≈ 37.2 µM), respectively.

In the case of `CCCCC/C=C\C/C=C\CCCCCCCC(=O)O[C@H]1[C@H](C)O[C@@H](O[C@H]2[C@H](C)[C@@H](O[C@@H]3O[C@H](C)C[C@H](N(C)C)[C@H]3O)[C@](C)(O)C[C@@H](C)C(=O)[C@H](C)[C@@H](O)[C@](C)(O)[C@@H](CC)OC(=O)[C@@H]2C)C[C@@]1(C)OC` [O--linoleoyl-4", O-linoleoyl-4" erythromycin A], the MIC in test [1] turned out to be 3.5 µg/mL (≈ 3.51 µM); in test [2], 28 µg/mL (≈ 28.1 µM).

On to `CCCCCCCC/C=C\CCCCCCCC(=O)O[C@H]1[C@H](O[C@@H]2[C@@H](C)[C@H](O[C@H]3C[C@@](C)(OC)[C@@H](O)[C@H](C)O3)[C@@H](C)C(=O)O[C@H](CC)[C@@](C)(O)[C@H](O)[C@@H](C)C(=O)[C@H](C)C[C@@]2(C)O)O[C@H](C)C[C@@H]1N(C)C` [O--oleoyl-2'], for which the figures for the MIC in test [1] and in test [2] were 50 µg/mL (≈ 50.1 µM) and 100 µg/mL (≈ 100 µM), respectively.

On to `CCCCC/C=C\C/C=C\C/C=C\C/C=C\CCCC(=O)O[C@H]1[C@H](O[C@@H]2[C@@H](C)[C@H](O[C@H]3C[C@@](C)(OC)[C@@H](O)[C@H](C)O3)[C@@H](C)C(=O)O[C@H](CC)[C@@](C)(O)[C@H](O)[C@@H](C)C(=O)[C@H](C)C[C@@]2(C)O)O[C@H](C)C[C@@H]1N(C)C` [O--arachidonoyl-2', O-arachidonoyl-2' erythromycin A], for which the MIC in test [1] is 6.25 µg/mL (≈ 6.13 µM); in test [2], > 50 µg/mL.

As to `CCCCCCCCCCCCCCCCCC(=O)O[C@H]1[C@H](O[C@@H]2[C@@H](C)[C@H](O[C@H]3C[C@@](C)(OC)[C@@H](O)[C@H](C)O3)[C@@H](C)C(=O)O[C@H](CC)[C@@](C)(O)[C@H](O)[C@@H](C)C(=O)[C@H](C)C[C@@]2(C)O)O[C@H](C)C[C@@H]1N(C)C` [O--stearoyl-2'], the MIC in test [1] was < 1.56 µg/mL; in test [2] it was > 50 µg/mL.
